Experimental findings from patent publication EP4786483A1, “AURISTATIN DERIVATIVE AND ANTIBODY-DRUG CONJUGATE THEREOF” (priority 2023, dated 2025) are described below.

What all share (type): cell-based
For assay [1], the system named is human breast cancer cells KPL-4. The assay is described as follows: Cytotoxicity test for compounds (CellTiter-Glo cell proliferation inhibition). The conditions noted are these: Homo sapiens, KPL4, 72 h; 3 days of incubation; CellTiter-Glo; read-out: KPL-4/IC50. On the procedure: (§1) Biological Test Example 1: Cytotoxicity Test for Compounds
(§2) • 96-well clear flat-bottom white plate (Corning, #3610) • RPMI1640 culture medium (Gibco, #A10491-01) • Fetal Bovine Serum (Sigma-Aldrich, #F8687-500ML) • CellTiter-Glo® Luminescent Cell Viability Assay (Promega, # G7572/G7571)
(§3) Human gastric cancer cells NCI-N87 (ATCC, Cat. No.: CRL-5822), human breast cancer cells MDA-MB-468 (Cell Bank of the Committee for Type Culture Collection of the Chinese Academy of Sciences, Cat. No.: TCHu136), and human breast cancer cells KPL-4 (Nanjing Cobioer Biosciences Co., Ltd., Cat. No.: CBP60379) were washed with PBS and digested with 0.25% Trypsin-EDTA trypsin for about 3-10 min. The digestion was terminated with a complete cell culture medium. The cells were centrifuged at 1000 rpm for 5 min, and the supernatant was discarded. The cells were resuspended in a complete cell culture medium. The cell number was counted using a cell counter, and the cells were adjusted to the desired density. 90.0 µL of the cell suspension was added to each well at 3000 cells/well. The cell plate was incubated in a cell incubator at 37°C with 5% CO2 overnight.
(§4) In the experiment, a DMSO control group and test sample groups were set. The cell plate was removed from the incubator to observe cell adherence. After the cells adhered, 10.00 µL of the sample (starting from a final concentration of 10 µM, 5-fold dilution, 9 concentrations) was added to each well. After the mixture was gently shaken uniformly, the plate was incubated in the incubator.
(§5) After 3 days of incubation, 100.0 µL/well of CellTiter-Glo™ (Promega, Cat. No.: G7572/G7571) working solution was added. The plate was shaken on a thermostatic shaker to lyse the cells. After 10 min, the plate was read on a microplate reader.
(§6) Data analysis: GraphPad Prism 8.0 software was used to plot a graph with the Log value of the sample concentration as the abscissa and the Inhibition% as the ordinate. The data were analyzed by Nonlinear regression (curve fit) to obtain the IC50 value of each test sample. Table 1. Inhibition activity of compounds of the present disclosure on cell proliferation
In general terms: In ATP-based viability assays light output follows the ATP content of the culture.

The subject of assay [2] is human breast cancer cells MDA-MB-468. Described as above. The conditions noted are these: Homo sapiens, MDA-MB-468, 72 h, 3 days of incubation; CellTiter-Glo; read-out: MDA-MD-468/IC50. The procedure: as §1, §2, §3, §4, §5, §6
Assay [3] concerns Human gastric cancer cells NCI-N87. Described as above. The note with it: Homo sapiens, NCI-N87, 72 h, 3 days of incubation; CellTiter-Glo; read-out: NCI-87/IC50. On the procedure: as §1, §2, §3, §4, §5, §6
The subject of assay [4] is CD34^+ hematopoietic stem/progenitor cells. The assay is described as follows: Hematologic toxicity of compounds (CD34+ HSC viability, CTG). The conditions noted are these: 240 h; cytotoxic drugs; treatment for 10 days; CTG cell viability. The procedure:
Experimental objective: The effects of cytotoxic drugs on the differentiation and development of CD34^+ hematopoietic stem/progenitor cells into the megakaryocytic lineage were investigated, so as to evaluate their potential hematologic toxicity of causing thrombocytopenia.
Experimental design: After resuscitation, bone marrow-mobilized peripheral blood-derived HSCs were seeded at 2000 cells/well/180 µL in an ultra-low attachment 96-well round-bottom plate and stabilized for 4 h. The cells were treated with compounds by performing a 5-fold gradient dilution starting from the highest dose of 1 µM, resulting in a total of 9 concentration points, and this treatment was maintained continuously for 10 days. Cell viability was detected using the CTG reagent (CellTiter-Glo luminescent cell viability detection kit, manufacturer: Promega, Cat. No.: G7571). Table 2. Hematologic toxicity test results of cytotoxic drugs

For the compound `CC[C@H](C)[C@@H]([C@@H](CC(=O)N1CCC[C@H]1[C@H](OC)[C@@H](C)C(=O)N(CCc1cccc(N)c1)OC)OC)N(C)C(=O)[C@@H](NC(=O)[C@H](C(C)C)N(C)C)C(C)C` [Example 7, (S)-N-((3R,4S,5S)-1-((S)-2-((1R,2R)-3-((3-aminophenethyl)(methoxy)amino)-1-methoxy-2-methyl-3-oxopropyl)pyrrolidin-1-yl)-3-methoxy-5-methyl-1-oxoheptan-4-yl)-2-((S)-2-(dimethylamino)-3-methylbutanamido)-N,3-dimethylbutanamide], the IC50 came to 0.45 nM in assay [1], 13.4 nM in assay [2], 0.89 nM in assay [3] and 0.144 nM in assay [4].

On to `CC[C@H](C)[C@@H]([C@@H](CC(=O)N1CCC[C@H]1[C@H](OC)[C@@H](C)C(=O)N(CC#N)CCc1cccc(N)c1)OC)N(C)C(=O)[C@@H](NC(=O)[C@H](C(C)C)N(C)C)C(C)C` [Example 45, (S)-N-((3R,4S,5S)-1-((S)-2-((1R,2R)-3-((3-aminophenethyl)(cyanomethyl)amino)-1-methoxy-2-methyl-3-oxopropyl)pyrrolidin-1-yl)-3-methoxy-5-methyl-1-oxoheptan-4-yl)-2-((S)-2-(dimethylamino)-3-methylbutanamido)-N,3-dimethylbutanamide], for which the IC50 in assay [1] worked out at 0.65 nM; in assay [3], 2.21 nM; in assay [4], 0.235 nM.

With `C#CCN(CCc1cccc(N)c1)C(=O)[C@H](C)[C@@H](OC)[C@@H]1CCCN1C(=O)C[C@@H](OC)[C@H]([C@@H](C)CC)N(C)C(=O)[C@@H](NC(=O)[C@H](C(C)C)N(C)C)C(C)C` [Example 6, (S)-N-((3R,4S,5S)-1-((S)-2-((1R,2R)-3-((3-aminophenethyl)(prop-2-yn-1-yl)amino)-1-methoxy-2-methyl-3-oxopropyl)pyrrolidin-1-yl)-3-methoxy-5-methyl-1-oxoheptan-4-yl)-2-((S)-2-(dimethylamino)-3-methylbutanamido)-N,3-dimethylbutanamide], the IC50 in assay [1] came out at 2.96 nM; in assay [2] it was 12.6 nM; in assay [3] it was 3.93 nM; in assay [4], 3.96 nM.
